# Reference: BindingDB's records for patent US20230339915 (Vertex Pharmaceuticals, 2023)
# pIC50: −log10 of the molar value.
# Molecular target: T1, Alpha-1-antitrypsin [E366K] (Homo sapiens, UniProt P01009, E366K)
# T1 construct: gene SERPINA1
# Experiment: Biochemical Assay (Z-AAT Elastase Activity Assay)
# Method: Assay Protocol: Pre-Incubation of Z-AAT with Compounds1. 7.5 μL of Z-AAT (20 nM) was incubated with compounds 1-227 in a GCA plate for 1 hour at room temperature. Addition of hNE1. 7.5 ul of HNE solution (3 nM in PBS+0.01% BRIJ35) added into GCA plate2. Incubate plate for 30 minutes to allow Z-AAT/HNE suicide complex formation. Addition of Substrate and Read Plate on PE Envision1. 7.5 μL of substrate (300 μM solution of elastase substrate (ES V) in PBS+0.01% BRIJ35) dispensed per well into GCA plate2. Immediately read on Envision.
# T1 sequence (P01009 25-418 E366K limits assumed): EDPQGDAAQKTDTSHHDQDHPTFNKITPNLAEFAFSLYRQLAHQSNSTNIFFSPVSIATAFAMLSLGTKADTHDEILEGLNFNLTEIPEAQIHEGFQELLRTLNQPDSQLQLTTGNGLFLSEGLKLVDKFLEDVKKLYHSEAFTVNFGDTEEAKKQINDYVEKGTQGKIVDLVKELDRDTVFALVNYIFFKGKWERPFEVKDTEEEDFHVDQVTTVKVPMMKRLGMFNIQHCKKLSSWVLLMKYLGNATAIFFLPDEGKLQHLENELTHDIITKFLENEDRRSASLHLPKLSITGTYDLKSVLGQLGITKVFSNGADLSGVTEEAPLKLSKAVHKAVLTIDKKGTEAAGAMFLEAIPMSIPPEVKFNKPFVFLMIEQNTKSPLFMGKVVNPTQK
row,pIC50,SMILES
1,< 5.30,"Cc1cc(-n2c(C(C)C)c(C3CC3(C)C(=O)O)c3cc(O)ccc32)ccc1F (centres undefined) [US20230339915, Compound 130]"
2,< 5.30,"Cc1cc(-n2c(C(C)C)c([C@H]3C[C@@H]3C(=O)O)c3cc(O)c(F)cc32)ccc1F [US20230339915, Compound 129]"
3,> 5.70,"Cc1cc(-n2c(C(C)C)c(-c3ccc(C(=O)O)cc3)c3cc(O)ccc32)ccc1F [US20230339915, Compound 167]"
4,> 5.70,"Cc1cc(-n2c(C(C)C)c(-c3ccc(C(=O)O)cc3C)c3cc(O)ccc32)ccc1F [US20230339915, Compound 170]"
